Measured values: patent US20090304692A1, “TRIAZINE COMPOUNDS AS PI3 KINASE AND MTOR INHIBITORS” (Wyeth, priority 2008, published 2009)
Read-outs that look alike come from different tables or passages of the source.

What was measured:
[1] = target: Human mTOR (FLAG-TOR) (Homo sapiens, UniProt P42345); experiment: mTOR kinase assay (DELFIA format, purified enzyme); format: biochemical; conditions: read-out: IC50 mTOR
[2] = test system: human breast MDA-MB-361 tumor cell line; experiment: In vitro cell culture growth assay (MTS), MDA-MB-361; format: cell-based; conditions: Homo sapiens, MTS cell growth assay, three days after drug treatment, MDA-MB-361 cells, read-out: IC50 MDA-MB-361
[3] = target: PI3K-γ (Homo sapiens, UniProt P48736); experiment: PI3K-gamma fluorescence polarization assay; conditions: read-out: IC50 PI3Kγ
[4] = test system: human prostate PC3-mm2 tumor cell line; experiment: In vitro cell culture growth assay (MTS), PC3-mm2; format: cell-based; conditions: Homo sapiens, PC3MM2, 72 h, MTS cell growth assay, three days after drug treatment, PC3-mm2 cells; read-out: IC50 PC3-mm2
[5] = target: PI3K-α (Homo sapiens, UniProt P42336); experiment: PI3K-alpha fluorescence polarization assay; conditions: read-out: IC50 PI3Kα
Chain of PI3K-α (P42336 whole entry, species assumed): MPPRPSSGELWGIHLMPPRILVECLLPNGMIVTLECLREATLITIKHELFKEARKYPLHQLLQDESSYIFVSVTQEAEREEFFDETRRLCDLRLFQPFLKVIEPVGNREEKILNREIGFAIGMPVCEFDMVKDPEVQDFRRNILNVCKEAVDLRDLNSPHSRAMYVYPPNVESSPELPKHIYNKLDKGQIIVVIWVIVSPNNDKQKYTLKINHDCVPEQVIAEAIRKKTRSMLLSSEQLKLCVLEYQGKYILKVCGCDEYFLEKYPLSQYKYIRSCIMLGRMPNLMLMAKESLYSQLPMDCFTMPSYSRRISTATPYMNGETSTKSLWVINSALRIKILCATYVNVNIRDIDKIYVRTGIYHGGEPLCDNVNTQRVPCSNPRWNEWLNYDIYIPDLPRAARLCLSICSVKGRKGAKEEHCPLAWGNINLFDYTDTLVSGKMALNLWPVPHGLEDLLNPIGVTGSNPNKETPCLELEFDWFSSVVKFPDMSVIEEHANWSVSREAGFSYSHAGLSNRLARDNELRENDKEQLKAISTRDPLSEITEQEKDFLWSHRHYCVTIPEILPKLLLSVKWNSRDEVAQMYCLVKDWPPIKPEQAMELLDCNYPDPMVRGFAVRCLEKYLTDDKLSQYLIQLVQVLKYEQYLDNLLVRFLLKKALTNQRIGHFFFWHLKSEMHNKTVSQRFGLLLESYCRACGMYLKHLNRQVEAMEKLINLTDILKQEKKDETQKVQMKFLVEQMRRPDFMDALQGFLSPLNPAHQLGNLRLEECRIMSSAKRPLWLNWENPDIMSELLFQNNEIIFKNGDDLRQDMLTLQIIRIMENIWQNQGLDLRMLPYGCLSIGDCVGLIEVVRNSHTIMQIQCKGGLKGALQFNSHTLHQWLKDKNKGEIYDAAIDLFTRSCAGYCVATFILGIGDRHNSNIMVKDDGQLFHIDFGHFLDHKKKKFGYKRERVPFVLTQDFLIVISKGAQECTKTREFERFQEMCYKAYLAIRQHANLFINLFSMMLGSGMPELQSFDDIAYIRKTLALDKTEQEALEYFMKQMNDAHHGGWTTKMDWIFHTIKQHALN
Chain of PI3K-α (P27986 whole entry partner, species assumed): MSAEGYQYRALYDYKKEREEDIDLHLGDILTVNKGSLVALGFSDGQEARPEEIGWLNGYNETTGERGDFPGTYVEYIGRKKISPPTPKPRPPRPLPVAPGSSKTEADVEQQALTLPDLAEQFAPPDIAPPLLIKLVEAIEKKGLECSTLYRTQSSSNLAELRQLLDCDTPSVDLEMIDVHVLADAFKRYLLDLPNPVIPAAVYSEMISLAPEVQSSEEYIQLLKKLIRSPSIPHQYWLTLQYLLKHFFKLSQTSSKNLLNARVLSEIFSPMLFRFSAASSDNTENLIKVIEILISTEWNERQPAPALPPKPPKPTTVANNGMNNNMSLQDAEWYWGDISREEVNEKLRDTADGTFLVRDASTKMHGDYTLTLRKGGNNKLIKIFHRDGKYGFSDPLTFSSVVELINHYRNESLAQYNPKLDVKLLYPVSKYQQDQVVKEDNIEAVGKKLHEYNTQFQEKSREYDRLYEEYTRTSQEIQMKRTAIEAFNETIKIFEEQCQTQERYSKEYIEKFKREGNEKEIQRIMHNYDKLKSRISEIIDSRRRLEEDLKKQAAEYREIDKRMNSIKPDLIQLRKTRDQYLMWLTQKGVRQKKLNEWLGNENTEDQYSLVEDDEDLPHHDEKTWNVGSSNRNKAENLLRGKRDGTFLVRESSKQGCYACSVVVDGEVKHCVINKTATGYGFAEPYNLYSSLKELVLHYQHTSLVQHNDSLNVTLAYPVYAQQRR

Chain of PI3K-γ (P48736 whole entry, species assumed): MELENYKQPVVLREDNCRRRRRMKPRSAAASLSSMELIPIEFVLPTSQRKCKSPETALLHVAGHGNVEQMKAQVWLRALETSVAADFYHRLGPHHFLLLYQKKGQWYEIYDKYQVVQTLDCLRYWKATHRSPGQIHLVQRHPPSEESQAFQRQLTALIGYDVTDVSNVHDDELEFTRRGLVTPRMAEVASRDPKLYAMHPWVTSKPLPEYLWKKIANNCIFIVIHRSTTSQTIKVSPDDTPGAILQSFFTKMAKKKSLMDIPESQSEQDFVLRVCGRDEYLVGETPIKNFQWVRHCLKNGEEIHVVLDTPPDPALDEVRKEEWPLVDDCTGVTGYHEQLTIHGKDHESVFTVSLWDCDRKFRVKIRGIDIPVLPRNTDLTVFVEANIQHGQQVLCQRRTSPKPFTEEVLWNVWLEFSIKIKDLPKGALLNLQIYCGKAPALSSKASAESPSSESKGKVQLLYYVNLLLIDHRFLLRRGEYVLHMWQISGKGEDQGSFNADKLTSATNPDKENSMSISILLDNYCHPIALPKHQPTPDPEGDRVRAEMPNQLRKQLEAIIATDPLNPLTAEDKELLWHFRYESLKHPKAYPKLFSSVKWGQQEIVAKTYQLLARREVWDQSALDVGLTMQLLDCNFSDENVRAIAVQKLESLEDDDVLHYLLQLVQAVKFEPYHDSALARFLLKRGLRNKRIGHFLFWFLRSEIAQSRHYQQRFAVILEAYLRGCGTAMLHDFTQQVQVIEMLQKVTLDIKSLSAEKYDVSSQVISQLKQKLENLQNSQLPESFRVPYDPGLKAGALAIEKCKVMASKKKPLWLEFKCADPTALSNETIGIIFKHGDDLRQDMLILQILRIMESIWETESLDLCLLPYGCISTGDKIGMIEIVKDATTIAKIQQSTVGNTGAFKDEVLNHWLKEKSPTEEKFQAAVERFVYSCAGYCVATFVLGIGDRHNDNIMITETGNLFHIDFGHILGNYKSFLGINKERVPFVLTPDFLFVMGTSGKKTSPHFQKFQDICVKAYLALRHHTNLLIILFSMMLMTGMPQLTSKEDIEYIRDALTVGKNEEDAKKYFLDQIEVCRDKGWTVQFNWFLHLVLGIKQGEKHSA
Chain of Human mTOR (FLAG-TOR) (P42345 1360-2549 limits assumed): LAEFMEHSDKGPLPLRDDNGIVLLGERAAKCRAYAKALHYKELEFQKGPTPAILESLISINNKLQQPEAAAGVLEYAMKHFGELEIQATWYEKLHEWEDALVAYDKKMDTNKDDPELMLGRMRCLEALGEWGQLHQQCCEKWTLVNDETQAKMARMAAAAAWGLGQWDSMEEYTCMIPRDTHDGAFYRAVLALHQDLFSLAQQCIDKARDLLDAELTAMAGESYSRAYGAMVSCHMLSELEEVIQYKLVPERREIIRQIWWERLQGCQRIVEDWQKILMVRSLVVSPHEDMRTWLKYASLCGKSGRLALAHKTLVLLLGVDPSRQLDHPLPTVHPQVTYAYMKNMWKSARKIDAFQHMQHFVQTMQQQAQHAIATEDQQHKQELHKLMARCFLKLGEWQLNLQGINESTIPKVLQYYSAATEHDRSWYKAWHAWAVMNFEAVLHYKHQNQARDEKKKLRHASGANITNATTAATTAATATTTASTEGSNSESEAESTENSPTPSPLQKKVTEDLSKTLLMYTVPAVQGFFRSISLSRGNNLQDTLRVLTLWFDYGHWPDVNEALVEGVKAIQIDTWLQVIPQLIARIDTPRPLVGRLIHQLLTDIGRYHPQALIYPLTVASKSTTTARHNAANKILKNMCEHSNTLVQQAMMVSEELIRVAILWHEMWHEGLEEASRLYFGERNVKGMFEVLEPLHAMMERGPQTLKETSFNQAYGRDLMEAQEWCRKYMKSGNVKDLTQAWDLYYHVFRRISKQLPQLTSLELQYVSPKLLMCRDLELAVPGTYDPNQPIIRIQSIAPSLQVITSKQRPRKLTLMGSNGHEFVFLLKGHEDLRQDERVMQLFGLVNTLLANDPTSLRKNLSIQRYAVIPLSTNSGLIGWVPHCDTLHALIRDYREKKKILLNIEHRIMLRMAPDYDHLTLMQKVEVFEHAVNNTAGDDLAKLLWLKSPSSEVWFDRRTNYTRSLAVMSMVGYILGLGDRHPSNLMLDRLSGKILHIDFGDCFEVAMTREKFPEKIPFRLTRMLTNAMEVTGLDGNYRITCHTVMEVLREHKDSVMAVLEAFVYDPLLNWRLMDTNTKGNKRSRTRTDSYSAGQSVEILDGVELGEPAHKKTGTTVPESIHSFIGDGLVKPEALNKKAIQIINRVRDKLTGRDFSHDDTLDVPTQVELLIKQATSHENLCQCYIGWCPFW

SMILES | IC50 [1] [nM] | IC50 ([2]; 72 h) [nM] | IC50 [3] [nM] | IC50 [4] [nM] | IC50 [5] [nM] | IC50 ([2]; MDA-MB-361, 72 h) [nM]
O=C(Nc1ccc(C(=O)NCCN2CCCC2)cc1)Nc1ccc(-c2nc(N3CCOCC3)nc(N3C4CCC3COC4)n2)cc1 [Example 758, 4-[({4-[4-morpholin-4-yl-6-(3-oxa-8-azabicyclo[3.2.1]oct-8-yl)-1,3,5-triazin-2-yl]phenyl}carbamoyl)amino]-N-(2-pyrrolidin-1-ylethyl)benzamide] | 0.17 | 3 | 16 | 14 | 2 | 
O=C(Nc1ccc(C(=O)NCCN2CCCCC2)cc1)Nc1ccc(-c2nc(N3CCOCC3)nc(N3C4CCC3COC4)n2)cc1 [Example 759, 4-[({4-[4-morpholin-4-yl-6-(3-oxa-8-azabicyclo[3.2.1]oct-8-yl)-1,3,5-triazin-2-yl]phenyl}carbamoyl)amino]-N-(2-piperidin-1-ylethyl)benzamide] | 0.16 | 1 | 38 | 10 | 2 | 
O=C(Nc1ccc(C(=O)N2CCC(N3CCCC3)CC2)cc1)Nc1ccc(-c2nc(N3CCOCC3)nc(N3C4CCC3COC4)n2)cc1 [Example 761, 1-{4-[4-morpholin-4-yl-6-(3-oxa-8-azabicyclo[3.2.1]oct-8-yl)-1,3,5-triazin-2-yl]phenyl}-3-{4-[(4-pyrrolidin-1-ylpiperidin-1-yl)carbonyl]phenyl}urea] | 0.12 |  | 19 | 4 | 2 | < 3
O=C(Nc1ccc(C(=O)N2CCSCC2)cc1)Nc1ccc(-c2nc(N3CCOCC3)nc(N3C4CCC3COC4)n2)cc1 [Example 762, 1-{4-[4-morpholin-4-yl-6-(3-oxa-8-azabicyclo[3.2.1]oct-8-yl)-1,3,5-triazin-2-yl]phenyl}-3-[4-(thiomorpholin-4-ylcarbonyl)phenyl]urea] | 0.428 |  | 19.7 | 7 | 2.7 | 8
O=C(Nc1ccc(C(=O)N2CCOCC2)cc1)Nc1ccc(-c2nc(N3CCOCC3)nc(N3C4CCC3COC4)n2)cc1 [Example 763, 1-[4-(morpholin-4-ylcarbonyl)phenyl]-3-{4-[4-morpholin-4-yl-6-(3-oxa-8-azabicyclo[3.2.1]oct-8-yl)-1,3,5-triazin-2-yl]phenyl}urea] | 0.445 |  | 24 | 7 | 3 | 4
O=C(Nc1ccc(C(=O)O)cc1)Nc1ccc(-c2nc(N3CCOCC3)nc(N3C4CCC3COC4)n2)cc1 [Example 764, 4-[({4-[4-morpholin-4-yl-6-(3-oxa-8-azabicyclo[3.2.1]oct-8-yl)-1,3,5-triazin-2-yl]phenyl}carbamoyl)amino]benzoic acid] | 0.21 |  | 67.5 | 678 | 8.5 | 628
O=C(Nc1ccncc1)Nc1ccc(-c2nc(N3CCOCC3)nc(N3C4COCC3COC4)n2)cc1 [Example 765, 1-{4-[4-(3,7-dioxa-9-azabicyclo[3.3.1]non-9-yl)-6-morpholin-4-yl-1,3,5-triazin-2-yl]phenyl}-3-pyridin-4-ylurea] | 0.195 | 21 | 78.5 | 27 | 8.5 | 
CN1CCN(c2ccc(NC(=O)Nc3ccc(-c4nc(N5CCOCC5)nc(N5C6CCC5COC6)n4)cc3)cn2)CC1 [Example 766, 1-[6-(4-methylpiperazin-1-yl)pyridin-3-yl]-3-{4-[4-morpholin-4-yl-6-(3-oxa-8-azabicyclo[3.2.1]oct-8-yl)-1,3,5-triazin-2-yl]phenyl}urea] | 1.31 | 26 | 85.5 | 50 | 24 | 
CN(C)C1CCN(C(=O)c2ccc(NC(=O)Nc3ccc(-c4nc(N5CCOCC5)nc(N5C6COCC5COC6)n4)cc3)cc2)CC1 [Example 767, 1-(4-{[4-(dimethylamino)piperidin-1-yl]carbonyl}phenyl)-3-{4-[4-(3,7-dioxa-9-azabicyclo[3.3.1]non-9-yl)-6-morpholin-4-yl-1,3,5-triazin-2-yl]phenyl}urea] | 0.2 |  | 17 | 13 | 2.1 | 5
CN(C)CCN(C)C(=O)c1ccc(NC(=O)Nc2ccc(-c3nc(N4CCOCC4)nc(N4C5COCC4COC5)n3)cc2)cc1 [Example 768, N-[2-(dimethylamino)ethyl]-4-[({4-[4-(3,7-dioxa-9-azabicyclo[3.3.1]non-9-yl)-6-morpholin-4-yl-1,3,5-triazin-2-yl]phenyl}carbamoyl)amino]-N-methylbenzamide] | 0.115 | 7 | 18.5 | 8 | 1.2 | 
CN1CCN(C(=O)c2ccc(NC(=O)Nc3ccc(-c4nc(N5CCOCC5)nc(N5C6COCC5COC6)n4)cc3)cc2)CC1 [Example 769, 1-{4-[4-(3,7-dioxa-9-azabicyclo[3.3.1]non-9-yl)-6-morpholin-4-yl-1,3,5-triazin-2-yl]phenyl}-3-{4-[(4-methylpiperazin-1-yl)carbonyl]phenyl}urea] | 0.23 |  | 17.5 | 14 | 2.1 | 6
COC(=O)c1ccc(NC(=O)Nc2ccc(-c3nc(N4CCOCC4)nc(N4C5COCC4COC5)n3)cc2)cc1 [Example 770, methyl 4-[({4-[4-(3,7-dioxa-9-azabicyclo[3.3.1]non-9-yl)-6-morpholin-4-yl-1,3,5-triazin-2-yl]phenyl}carbamoyl)amino]benzoate] | 0.27 | 40 | 99 | 25 | 30.5 | 
O=C(Nc1ccc(C(=O)O)cc1)Nc1ccc(-c2nc(N3CCOCC3)nc(N3C4COCC3COC4)n2)cc1 [Example 771, 4-[({4-[4-(3,7-dioxa-9-azabicyclo[3.3.1]non-9-yl)-6-morpholin-4-yl-1,3,5-triazin-2-yl]phenyl}carbamoyl)amino]benzoic acid] | 0.215 | > 1000 | 66 | > 1000 | 19.5 | 
O=C(Nc1ccc(C(=O)N2CCNCC2)cc1)Nc1ccc(-c2nc(N3CCOCC3)nc(N3C4COCC3COC4)n2)cc1 [Example 772, 1-{4-[4-(3,7-dioxa-9-azabicyclo[3.3.1]non-9-yl)-6-morpholin-4-yl-1,3,5-triazin-2-yl]phenyl}-3-[4-(piperazin-1-ylcarbonyl)phenyl]urea] | 0.29 |  | 9.5 | 15 | 0.8 | 5
CC(C)N1CCN(C(=O)c2ccc(NC(=O)Nc3ccc(-c4nc(N5CCOCC5)nc(N5C6COCC5COC6)n4)cc3)cc2)CC1 [Example 773, 1-{4-[4-(3,7-dioxa-9-azabicyclo[3.3.1]non-9-yl)-6-morpholin-4-yl-1,3,5-triazin-2-yl]phenyl}-3-{4-[(4-isopropylpiperazin-1-yl)carbonyl]phenyl}urea] | 0.305 |  | 36.5 | 6 | 3 | 4
O=C(Nc1ccc(C(=O)NCCN2CCCC2)cc1)Nc1ccc(-c2nc(N3CCOCC3)nc(N3C4COCC3COC4)n2)cc1 [Example 774, 4-[({4-[4-(3,7-dioxa-9-azabicyclo[3.3.1]non-9-yl)-6-morpholin-4-yl-1,3,5-triazin-2-yl]phenyl}carbamoyl)amino]-N-(2-pyrrolidin-1-ylethyl)benzamide] | 0.23 | 14 | 41.5 | 19 | 2 | 
O=C(Nc1ccc(C(=O)NCCN2CCCCC2)cc1)Nc1ccc(-c2nc(N3CCOCC3)nc(N3C4COCC3COC4)n2)cc1 [Example 775, 4-[({4-[4-(3,7-dioxa-9-azabicyclo[3.3.1]non-9-yl)-6-morpholin-4-yl-1,3,5-triazin-2-yl]phenyl}carbamoyl)amino]-N-(2-piperidin-1-ylethyl)benzamide] | 0.23 | 5 | 46.5 | 7 | 2.5 | 
O=C(Nc1ccc(C(=O)N2CCC(N3CCCC3)CC2)cc1)Nc1ccc(-c2nc(N3CCOCC3)nc(N3C4COCC3COC4)n2)cc1 [Example 776, 1-{4-[4-(3,7-dioxa-9-azabicyclo[3.3.1]non-9-yl)-6-morpholin-4-yl-1,3,5-triazin-2-yl]phenyl}-3-{4-[(4-pyrrolidin-1-ylpiperidin-1-yl)carbonyl]phenyl}urea] | 0.345 |  | 29.5 | 6 | 3 | < 3.2
O=C(Nc1ccc(C(=O)N2CCC(N3CCCCC3)CC2)cc1)Nc1ccc(-c2nc(N3CCOCC3)nc(N3C4COCC3COC4)n2)cc1 [Example 777, 1-[4-(1,4′-bipiperidin-1′-ylcarbonyl)phenyl]-3-{4-[4-(3,7-dioxa-9-azabicyclo[3.3.1]non-9-yl)-6-morpholin-4-yl-1,3,5-triazin-2-yl]phenyl}urea] | 0.265 |  | 39 | 4 | 4 | 2
O=C(Nc1ccc(C(=O)NCCc2ccccn2)cc1)Nc1ccc(-c2nc(N3CCOCC3)nc(N3C4COCC3COC4)n2)cc1 [Example 778, 4-[({4-[4-(3,7-dioxa-9-azabicyclo[3.3.1]non-9-yl)-6-morpholin-4-yl-1,3,5-triazin-2-yl]phenyl}carbamoyl)amino]-N-(2-pyridin-2-ylethyl)benzamide] | 0.28 | 17 | 126 | 29 | 11.5 | 
